Data taken from patent US20230416256A1, “SMALL MOLECULE INHIBITORS OF NF-kB INDUCING KINASE” (Janssen Pharmaceutica NV, priority 2020, published 2023).
Where two headings read alike, the source gives them in different places.

Experiments:
[1] = target: recombinant human NF-kappaB-inducing kinase (NIK/MAP3K14) (Homo sapiens, UniProt Q99558); experiment: Inhibition of auto-phosphorylation of recombinant human NIK/MAP3K14 activity (AlphaScreen); type: biochemical; conditions: GST-tagged NIK/MAP3K14 1 nM, 5 μM ATP, 2 h at 25° C.; average of values obtained
recombinant human NF-kappaB-inducing kinase (NIK/MAP3K14), sequence (Q99558 whole entry): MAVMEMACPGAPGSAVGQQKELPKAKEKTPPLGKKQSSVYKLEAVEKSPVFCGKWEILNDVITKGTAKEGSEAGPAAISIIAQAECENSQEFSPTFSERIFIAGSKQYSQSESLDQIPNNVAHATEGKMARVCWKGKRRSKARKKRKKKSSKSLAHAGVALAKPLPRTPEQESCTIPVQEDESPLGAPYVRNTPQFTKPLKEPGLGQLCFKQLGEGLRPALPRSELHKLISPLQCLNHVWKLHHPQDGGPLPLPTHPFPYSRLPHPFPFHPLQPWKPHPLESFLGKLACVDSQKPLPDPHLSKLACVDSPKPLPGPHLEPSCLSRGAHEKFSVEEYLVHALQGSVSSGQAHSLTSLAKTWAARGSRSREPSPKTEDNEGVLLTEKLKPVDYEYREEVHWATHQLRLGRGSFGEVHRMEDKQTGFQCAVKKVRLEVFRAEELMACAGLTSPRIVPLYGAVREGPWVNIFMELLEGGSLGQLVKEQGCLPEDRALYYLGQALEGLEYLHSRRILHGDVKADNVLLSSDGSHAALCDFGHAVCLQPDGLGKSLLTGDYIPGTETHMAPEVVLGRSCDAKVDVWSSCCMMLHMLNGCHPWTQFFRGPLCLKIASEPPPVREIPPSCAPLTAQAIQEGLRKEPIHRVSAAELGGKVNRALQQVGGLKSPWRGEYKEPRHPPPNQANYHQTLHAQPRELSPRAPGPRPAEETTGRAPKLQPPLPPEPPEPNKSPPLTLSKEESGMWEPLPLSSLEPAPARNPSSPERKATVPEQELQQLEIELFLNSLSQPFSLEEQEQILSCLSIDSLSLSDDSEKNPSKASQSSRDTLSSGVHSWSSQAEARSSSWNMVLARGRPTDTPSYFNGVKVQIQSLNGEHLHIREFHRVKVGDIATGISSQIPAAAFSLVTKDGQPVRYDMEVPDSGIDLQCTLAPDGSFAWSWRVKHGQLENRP
Procedure, shortened: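 GST-tagged NIK (1 nM) auto-phosphorylated for 2 h at 25 °C with 5 μM ATP in 50 mM Tris pH 7.5, 5 mM MgCl2, 0.7% DMSO. Phospho-Ser176/180 was detected by AlphaScreen using an anti-phospho-IKK antibody. IC50 came from sigmoidal fits of % inhibition versus high (full activity) and low (no ATP) controls.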

[2] = test system: p-IKKα levels in L363 (NIK translocated multiple myeloma) cells; experiment: Effect of compounds on p-IKKα levels in L363 cells (AlphaLISA SureFire Ultra); type: cell-based, human; conditions: 10 μM MG132, 6 h, average of values obtained, read-out: Assay 2 IC50
Procedure, shortened: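 L363 cells were BAFF-stimulated overnight (250 ng/ml) in DMEM/0.5% BSA, then exposed to an 11-point 1:3 compound series (0.3% DMSO) with BAFF and 10 μM MG132 for 6 h at 37 °C. p-IKKα (Ser176/180) was measured by AlphaLISA SureFire Ultra. IC50 was fitted from % inhibition normalized to stimulated and unstimulated controls.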

[3] = Homo sapiens, L-363, 6 h, 250 ng/ml BAFF stimulated
[4] = Homo sapiens, L-363, 250 ng/ml BAFF stimulated

Structure (SMILES)	IC50 [2, 3]	IC50 ([2]; 250 ng/ml BAFF stimulated)	IC50 [1]	IC50 [2, 4]
Cc1sc(-c2c[nH]c3nccnc23)nc1-c1cccc([C@]2(O)CCN(C)C2=O)c1 [Example 66, (R)-3-Hydroxy-1-methyl-3-(3-(5-methyl-2-(5H-pyrrolo[2,3-b]pyrazin-7-yl)thiazol-4-yl)phenyl)pyrrolidin-2-one]	–	–	≤ 100 nM	> 500 nM
Cc1ccc([C@]2(O)CCN(C)C2=O)cc1-c1csc(-c2c[nH]c3nccnc23)n1 [Example 67, (R)-3-(3-(2-(5H-Pyrrolo[2,3-b]pyrazin-7-yl)thiazol-4-yl)-4-methylphenyl)-3-hydroxy-1-methylpyrrolidin-2-one]	–	–	≤ 100 nM	> 500 nM
Cc1cc(-c2csc(-c3c[nH]c4nccnc34)n2)cc([C@]2(O)CCN(C)C2=O)c1 [Example 68, (R)-3-(3-(2-(5H-Pyrrolo[2,3-b]pyrazin-7-yl)thiazol-4-yl)-5-methylphenyl)-3-hydroxy-1-methylpyrrolidin-2-one]	–	–	≤ 100 nM	> 500 nM
Cc1ccc(-c2csc(-c3c[nH]c4nccnc34)n2)cc1[C@]1(O)CCN(C)C1=O [Example 69, (R)-3-(5-(2-(5H-Pyrrolo[2,3-b]pyrazin-7-yl)thiazol-4-yl)-2-methylphenyl)-3-hydroxy-1-methylpyrrolidin-2-one]	–	–	100 to 500 nM	> 500 nM
Cc1ccc(-c2csc(-c3c[nH]c4nccnc34)n2)cc1[C@@]1(O)CCN(C)C1=O [Example 70, (S)-3-(5-(2-(5H-Pyrrolo[2,3-b]pyrazin-7-yl)thiazol-4-yl)-2-methylphenyl)-3-hydroxy-1-methylpyrrolidin-2-one]	–	–	> 500 nM	> 500 nM
Cc1[nH]c2ncccc2c1-c1nc(-c2cccc([C@]3(O)CCN(C)C3=O)c2)cs1 [Example 71, (R)-3-Hydroxy-1-methyl-3-(3-(2-(2-methyl-1H-pyrrolo[2,3-b]pyridin-3-yl)thiazol-4-yl)phenyl)pyrrolidin-2-one]	–	–	100 to 500 nM	> 500 nM
CN1CC[C@@](O)(c2cccc(-c3csc(-c4c[nH]c5ncc(C#N)cc45)n3)c2)C1=O [Example 72, (R)-3-(4-(3-(3-Hydroxy-1-methyl-2-oxopyrrolidin-3-yl)phenyl)thiazol-2-yl)-1H-pyrrolo[2,3-b]pyridine-5-carbonitrile]	–	–	≤ 100 nM	> 500 nM
Cc1ccc2c(-c3nc(-c4cccc([C@]5(O)CCN(C)C5=O)c4)cs3)c[nH]c2n1 [Example 73, (R)-3-Hydroxy-1-methyl-3-(3-(2-(6-methyl-1H-pyrrolo[2,3-b]pyridin-3-yl)thiazol-4-yl)phenyl)pyrrolidin-2-one]	–	–	≤ 100 nM	> 500 nM
Cc1cnc2[nH]c(C)c(-c3nc(-c4cccc([C@]5(O)CCN(C)C5=O)c4)cs3)c2c1 [Example 74, (R)-3-(3-(2-(2,5-Dimethyl-1H-pyrrolo[2,3-b]pyridin-3-yl)thiazol-4-yl)phenyl)-3-hydroxy-1-methylpyrrolidin-2-one]	–	–	> 500 nM	> 500 nM
O[C@@]1(c2cccc(-c3csc(-c4c[nH]c5nnccc45)n3)c2)CCn2ccnc21 [Example 88, (R)-7-(3-(2-(7H-pyrrolo[2,3-c]pyridazin-5-yl)thiazol-4-yl)phenyl)-6,7-dihydro-5H-pyrrolo[1,2-a]imidazol-7-ol]	> 500 nM	–	≤ 100 nM	–
CN1C(=O)[C@@](O)(c2cccc(-c3csc(-c4c[nH]c5ncccc45)n3)c2)c2ncccc21 [Example 91, (R)-3-(3-(2-(1H-Pyrrolo[2,3-b]pyridin-3-yl)thiazol-4-yl)phenyl)-3-hydroxy-1-methyl-1,3-dihydro-2H-pyrrolo[3,2-b]pyridin-2-one]	–	–	> 500 nM	> 500 nM
CN1C(=O)[C@](O)(c2cccc(-c3csc(-c4c[nH]c5ncccc45)n3)c2)c2ncccc21 [Example 92, (S)-3-(3-(2-(1H-Pyrrolo[2,3-b]pyridin-3-yl)thiazol-4-yl)phenyl)-3-hydroxy-1-methyl-1,3-dihydro-2H-pyrrolo[3,2-b]pyridin-2-one]	–	–	≤ 100 nM	> 500 nM
CN1CC[C@@](O)(c2cccc(-c3coc(-c4c[nH]c5ncccc45)c3)c2)C1=O [Example 93, (R)-3-(3-(5-(1H-Pyrrolo[2,3-b]pyridin-3-yl)furan-3-yl)phenyl)-3-hydroxy-1-methylpyrrolidin-2-one]	–	–	≤ 100 nM	> 500 nM
CN1CC[C@@](O)(c2cccc(-c3csc(-c4c[nH]c5ncc(F)c(F)c45)n3)c2)C1=O [Example 94, (R)-3-(3-(2-(4,5-Difluoro-1H-pyrrolo[2,3-b]pyridin-3-yl)thiazol-4-yl)phenyl)-3-hydroxy-1-methylpyrrolidin-2-one]	–	–	≤ 100 nM	> 500 nM
CN1CC[C@@](O)(c2cccc(-c3csc(-c4c[nH]c5ncc(Cl)c(F)c45)n3)c2)C1=O [Example 95, (R)-3-(3-(2-(5-Chloro-4-fluoro-1H-pyrrolo[2,3-b]pyridin-3-yl)thiazol-4-yl)phenyl)-3-hydroxy-1-methylpyrrolidin-2-one]	–	–	≤ 100 nM	> 500 nM
O[C@@]1(c2cccc(-c3csc(-c4c[nH]c5ncc(Cl)c(F)c45)n3)c2)CCn2ccnc21 [Example 97, (R)-7-(3-(2-(5-Chloro-4-fluoro-1H-pyrrolo[2,3-b]pyridin-3-yl)thiazol-4-yl)phenyl)-6,7-dihydro-5H-pyrrolo[1,2-a]imidazol-7-ol]	100 to 500 nM	–	≤ 100 nM	–

Further lines, with some results ahead:

IC50 [2, 3]	IC50 ([2]; 250 ng/ml BAFF stimulated)	Structure (SMILES)	IC50 [1]	IC50 [2, 4]
≤ 100 nM	–	[2H]c1[nH]c2nccnc2c1-c1nc(-c2cccc([C@]3(O)CCn4ccnc43)c2)cs1 [Example 62, (R)-7-(3-(2-(5H-Pyrrolo[2,3-b]pyrazin-7-yl-6-d)thiazol-4-yl)phenyl)-6,7-dihydro-5H-pyrrolo[1,2-a]imidazol-7-ol]	≤ 100 nM	–
≤ 100 nM	–	[2H]c1cnc2[nH]cc(-c3nc(-c4cccc([C@]5(O)CCn6ccnc65)c4)cs3)c2n1 [Example 63, (R)-7-(3-(2-(5H-Pyrrolo[2,3-b]pyrazin-7-yl-2-d)thiazol-4-yl)phenyl)-6,7-dihydro-5H-pyrrolo[1,2-a] imidazol-7-ol]	≤ 100 nM	–
> 500 nM	–	O[C@@]1(c2cccc(-c3csc(-c4n[nH]c5ncccc45)n3)c2)CCn2ccnc21 [Example 75, (R)-7-(3-(2-(1H-Pyrazolo[3,4-b]pyridin-3-yl)thiazol-4-yl)phenyl)-6,7-dihydro-5H-pyrrolo[1,2-a]imidazol-7-ol]	100 to 500 nM	–
> 500 nM	–	O[C@@]1(c2cccc(-c3csc(-c4n[nH]c5nccnc45)n3)c2)CCn2ccnc21 [Example 76, (R)-7-(3-(2-(1H-Pyrazolo[3,4-b]pyrazin-3-yl)thiazol-4-yl)phenyl)-6,7-dihydro-5H-pyrrolo[1,2-a]imidazol-7-ol]	100 to 500 nM	–
≤ 100 nM	–	Cc1cnc2[nH]cc(-c3nc(-c4cccc([C@]5(O)CCn6ccnc65)c4)cs3)c2n1 [Example 81, (R)-7-(3-(2-(2-Methyl-5H-pyrrolo[2,3-b]pyrazin-7-yl)thiazol-4-yl)phenyl)-6,7-dihydro-5H-pyrrolo[1,2-a]imidazol-7-ol]	≤ 100 nM	–
> 500 nM	–	Cc1cnc2[nH]cc(-c3nc(-c4cccc([C@@]5(O)CCn6ccnc65)c4)cs3)c2n1 [Example 82, (S)-7-(3-(2-(2-Methyl-5H-pyrrolo[2,3-b]pyrazin-7-yl)thiazol-4-yl)phenyl)-6,7-dihydro-5H-pyrrolo[1,2-a]imidazol-7-ol]	100 to 500 nM	–
100 to 500 nM	–	Cc1cnc2c(-c3nc(-c4cccc([C@]5(O)CCn6ccnc65)c4)cs3)c[nH]c2n1 [Example 83, (R)-7-(3-(2-(3-Methyl-5H-pyrrolo[2,3-b]pyrazin-7-yl)thiazol-4-yl)phenyl)-6,7-dihydro-5H-pyrrolo[1,2-a]imidazol-7-ol]	≤ 100 nM	–
> 500 nM	–	O[C@]1(c2cccc(-c3nc(-c4c[nH]c5ncccc45)cs3)c2)CCn2ccnc21 [Example 84, (S)-7-(3-(4-(1H-Pyrrolo[2,3-b]pyridin-3-yl)thiazol-2-yl)phenyl)-6,7-dihydro-5H-pyrrolo[1,2-a]imidazol-7-ol]	100 to 500 nM	–
–	> 500 nM	O[C@@]1(c2cccc(-c3csc(-c4c[nH]c5ncccc45)n3)c2)COc2cccnc21 [Example 85, (R)-3-(3-(2-(1H-Pyrrolo[2,3-b]pyridin-3-yl)thiazol-4-yl)phenyl)-2,3-dihydrofuro[3,2-b]pyridin-3-ol]	> 500 nM	–
–	> 500 nM	O[C@@]1(c2cccc(-c3csc(-c4c[nH]c5nccnc45)n3)c2)COc2cccnc21 [Example 86, (R)-3-(3-(2-(5H-Pyrrolo[2,3-b]pyrazin-7-yl)thiazol-4-yl)phenyl)-2,3-dihydrofuro[3,2-b]pyridin-3-ol]	> 500 nM	–
> 500 nM	–	Cc1ccnc2[nH]cc(-c3nc(-c4cccc([C@]5(O)CCn6ccnc65)c4)cs3)c12 [Example 87, (R)-7-(3-(2-(4-Methyl-1H-pyrrolo[2,3-b]pyridin-3-yl)thiazol-4-yl)phenyl)-6,7-dihydro-5H-pyrrolo[1,2-a]imidazol-7-ol]	≤ 100 nM	–
> 500 nM	–	O[C@@]1(c2cccc(-c3csc(-c4c[nH]c5ncc(F)c(F)c45)n3)c2)CCn2ccnc21 [Example 96, (R)-7-(3-(2-(4,5-Difluoro-1H-pyrrolo[2,3-b]pyridin-3-yl)thiazol-4-yl)phenyl)-6,7-dihydro-5H-pyrrolo[1,2-a]imidazol-7-ol]	≤ 100 nM	–
